The source of these data is US20030032674A1, “Use of unsaturated fatty acids to treat severe inflammatory diseases” (priority 2001, published 2003).

One experiment deals with IL-1α expression. As to the kind of experiment: IL-1α immunoblot in RAW 264.7 cells. Type of experiment: cell-based, murine. The conditions noted are these: lauric acid 1, 10, 50, 100 μM with BSA, 11 h. On the procedure: Cell culture—RAW 264.7 cells (a murine macrophage-like cell line, ATCC TIB-71), 293T cells (a human embryonic kidney cell line, provided by Sam Lee, Beth Israel Hospital. Boston, Mass.), and HT-29 cells (a human colon adenocarcinoma cell line, ATCC HTB-38) were cultured in Dulbecco's modified Eagle's medium (DMEM) containing 10% (v/v) heat-inactivated fetal bovine serum (FBS, Intergen) and 100 units/ml Penicillin and […] Streptomycin (GIBCO-BRL) at 37° C. in a 5% CO2/air environment. Cells (2×10^6) were plated in 60-mm dishes and cultured for an additional 18 hours to allow the number of cells to approximately double. Cells were maintained in serum-poor (0.25% FBS) medium for another 18 hours prior to the treatment with indicated reagents.
Preparation of fatty acids-albumin complexes—All fatty acids were solubilized in ethanol, and then combined with fatty acid-free and low-endotoxin BSA at a molar ratio of 10:1 (fatty acid: albumin) in serum-poor medium (0.25% FBS). […]
After 11 h, cell lysates were analyzed by COX-2, iNOS, IL-1α, or GAPDH immunoblot using a Western blot analysis.
RAW 264.7 cells were pretested with various concentrations (5, 10, 20, and 50 μM) of docosahexaenoic acid (C22:6n-3) for 3 hours, and then stimulated with LPS (100 ng/ml) for 8 hours and analyzed by COX-2, iNOS, IL-1 a or GAPDH immunoblot.
In general terms: Immunoblotting shows a protein as a band on a membrane.

Another experiment relates to COX-2 promoter. Briefly: COX-2 promoter luciferase reporter gene assay, transiently transfected RAW 264.7 cells. More on the design: lauric acid-induced COX-2 expression on co-transfection of dominant-negative IkBa / lauric acid-induced COX-2 expression on co-transfection of dominant-negative PPARγ / lauric acid-induced COX-2 expression on co-transfection of dominant-negative TLR4 [DTLR4 (P712H)]: dose or concentration left out as unconfirmed. Type of experiment: cell-based, murine. The source says:
Plasmids and DNA Constructs—All plasmids and constructs were obtained or made as reported in either S. H. Rhee and D. Hwang, “Murine TOLL-like receptor 4 confers lipopolysaccaride responsiveness as determined by activation of NFκB and expression of the inducible cyclooxygenase,” Journal of Biological Chemistry, vol. 275, pp. 34035-34040 (2000); and J. Y. Lee et al., “Saturated fatty acids, but not unsaturated fatty acids, induce the expression of cyclooxygenase-2 mediated through TOLL-like receptor 4,” Journal of Biological Chemistry, vol. 276, pp. 16683-16689 (2001). Briefly, the luciferase reporter plasmids (pGL2) containing the promoter region of the murine COX-2 gene (−3201/+93 or −1017/+93) were provided by David Dewitt (Michigan State University, East Lansing, Mich.). To prepare the wild-type COX-2 promoter fragment, polymerase chain reaction (PCR) was performed with the primers named Kpn-COX2-For and Hind-COX2-Rev using the murine COX-2 (−1017/+93) luciferase reporter plasmid as a template. To prepare the mutant COX-2 promoter fragment containing mutated NFκB site, Kpn-COX2-Fmut and Hind-COX2-Rev were used as primers. Each PCR fragment was inserted into the KpnI and HindIII sites of pGL2 to generate the wild-type or mutant COX-2 (−410/+86) luciferase reporter constructs, respectively. Sequences for wild-type NFκB site and the primers were used as reported elsewhere. (See Lee et al., 2001). The 2×NFκB-luciferase reporter construct was a gift from Frank Mercurio (Signal Pharmaceuticals, San Diego, Calif.). HSP70-β-galactosidase reporter plasmid was a gift from Robert Modlin (University of California, Los Angeles, Calif.). The expression plasmids for a constitutively active form of TLR4 (DTLR4) and a dominant-negative mutant, DTLR4 (P712H) were prepared as previously described. See S. H. Rhee et al., 2000. The expression plasmid of the wild-type NFκB-inducing kinase (NIK), pRK-NIK(wt) was a gift from Mike Rothe (Tularik, South San Francisco, Calif.). The dominant-negative mutant of inhibitor kB (pCMV4-IkBa(DN)) was provided by Dean Ballard (Vanderbilt University, Nashville, Tenn.). 4×NFκB-luciferase reporter construct was purchased from Clontech (Palo Alto, Calif.) and used for transient transfection. Heat shock protein 70 (HSP70)-β-galactosidase reporter plasmid was from Robert Modlin (University of Calif., Los Angeles, Calif.). The expression plasmids for a wild-type TLR2 and a dominant-negative mutant [TLR2 (P681H)] were from C. B. Wilson (University of Washington, Seattle, Wash.). Constitutively active chimeric CD4-TLR4 was obtained from C. A. Janeway, Jr. (Yale University, New Haven, Conn.). The constitutively active form of MyD88 (MyD88(ΔToll)) and the dominant-negative mutant, MyD88(ΔDD) were kindly provided by Jurg Tschopp (University of Lausanne, Switzerland). The dominant-negative mutant of mouse PPARg [pCMX-PPARg(L466A/L467A)] was a gift from Ira Schulman (Ligand Pharmaceuticals, San Diego, Calif.). All DNA constructs were prepared in large scale using the EndoFree Plasmid Maxi kit (Qiagen, Chatsworth, Calif.) for transfection.
Transient transfection and luciferase assay—These procedures were performed as described in S. H. Rhee et al., “Murine TOLL-like receptor 4 confers lipopolysaccharide responsiveness as determined by activation of NFκB and expression of the inducible cyclooxygenase,” J. Biol. Chem., vol. 275, pp. 34035-34040 (2000); and J. H. Paik et al., “Two opposing effects of non-steroidal anti-inflammatory drugs on the expression of the inducible cyclooxygenase, Mediation through different signaling pathways,” J. Biol. Chem., vol. 275, pp. 28173-28179 (2000). Briefly, RAW 264.7 cells were plated in 6-well plates (5×10^5 cells/well) and transfected with luciferase reporter plasmids and HSP70-β-galactosidase plasmid as an internal control using SuperFect transfect reagent (Quiagen) according to the manufacturer's instructions. […]
On the technique in general: A reporter such as luciferase makes a cellular process visible.

Each structure is given as a SMILES string.

For `CCCCCCCCCCCC(=O)O` [lauric acid], the “IL-1α expression induced by fatty acid (immunoblot)” value with IL-1α expression is listed as “induced”. In addition, in the experiment on COX-2 promoter (24 hours), the “lauric acid-induced COX-2 expression on co-transfection of dominant-negative IkBa” value is given as “inhibited” and the “lauric acid-induced COX-2 expression on co-transfection of dominant-negative TLR4 [DTLR4 (P712H)]” value was “inhibits”. The “lauric acid-induced COX-2 expression on co-transfection of dominant-negative PPARγ” value with COX-2 promoter (24 hours, with or without PPRE-like sequences) is “not altered”. Besides, the “lauric acid-induced COX-2 expression, promoter with mutated NFκB site vs wild-type site” value in the experiment with COX-2 promoter (COX-2 promoter reporter with mutated NFκB site) is listed as “significantly reduced”.
